Literature values in patent US20050013939A1, “Boron-based wood preservatives and treatment of wood with boron-based preservatives” (priority 2001, published 2005).

Assays:
Insect = conditions: boric acid equivalents typically required in wood
fungal decay = conditions: boric acid equivalents typically required in wood

Structure (SMILES): OB(O)O [boric acid]
- % wt/wt BAE required, Insect protection (Insect): 0.25 % wt/wt
- % wt/wt BAE required, Fungicidal protection (fungal decay): 0.75 % wt/wt
